Assay results taken from PMC6222352, “Ultrasound Assisted Synthesis of 4-(Benzyloxy)-N-(3-chloro-2-(substitutedphenyl)-4-oxoazetidin-1-yl) Benzamide as Challenging Anti-Tubercular Scaffold” (Molecules : A Journal of Synthetic Chemistry and Natural …, 2018).
Converted amounts (≈) assume the structure as drawn. Read-outs that look alike come from different tables or passages of the source.

Columns and labels:
[1] = test system: Mycobacterium tuberculosis H37Ra (ATCC 25177); assay: In vitro anti-tubercular activity by XTT Reduction Menadione assay (XRMA); type: cell-based; settings: 192 h, read-out: Mycobacterium tuberculosis H37Ra (ATCC 25177) IC50
Method: All the synthesized compounds 6a–j were screened for their in vitro anti-tubercular activity against MTB H37Ra (ATCC 25177). Rifampicin was used as a positive control.
In Vitro Anti-Tubercular Activity by the XTT Reduction Menadione Assay (XRMA) Method
Mycobacterium tuberculosis H37Ra (ATCC 25177) strains were obtained from AstraZeneca, India. The stock culture was maintained at −80 °C and subcultured once in a liquid M. pheli medium which contained 0.5 g KH2PO4, 0.25 g trisodium citrate, 60 mg MgSO4, 0.5 gm asparagine, and 2 mL glycerol in distilled water (100 mL) followed by pH adjustment to 6.6. Bacilli stock cultures were grown in M. pheli medium at 37 °C with continuous agitation at 150 RPM;, it takes at least 8–10 days for OD 1 at 620 nm. Stock solutions (10 mg/mL) of all the synthesized compounds were prepared in DMSO and were evaluated for in vitro anti-tubercular activity against Mycobacterium tuberculosis H37Ra (ATCC 25177) in a liquid medium using an established XTT Reduction Menadione assay (XRMA) method. Briefly, the 96 wells plate received 248.5 μL of M. Pheli medium consisting of bacilli and 2.5 μL of test solutions in serial dilution (12.5, 6.25, 3.125, 1.5625, 0.78 μg/mL). The plates were sealed with a 96-well sealing sheet and incubated at 37 °C for 8 days. Post incubation, XRMA was carried out to estimate viable cells present in different wells of the assay plate. The absorbance was read on a micro plate reader (Spectramax plus384 plate reader, Molecular Devices Inc., San Jose, CA, USA) at 470 nm filter against a blank prepared from cell-free wells. Absorbance given by cells treated with the vehicle alone was taken as 100% cell growth. MIC and IC50 values of compounds were calculated by using Origin 6 software. Percent inhibition was calculated by using following formula:% Inhibition = [(absorbance of Control − absorbance of Test)/(absorbance of Control − absorbance of Blank)] × 100(1) where control is the medium with bacilli along with vehicle and blank is cell-free medium. The drug in clinical use, rifampicin was used as a reference.

[2] = test system: human cervical cancer cell line HeLa; assay: In vitro cytotoxicity by MTT assay; type: cell-based; settings: 48 h, concentration range 100–0.1 μg/mL, read-out: Hela Cells IC50
Method: To lowers the failure of potential therapeutics at later stages of clinical trials toxicity analysis of synthesized compounds at the early stage of research work plays a very important role. To examine the safety of the synthesized compounds, 6a–j were evaluated for their toxicity against human cervical cancer cell line HeLa using the concentration range between 100–0.1 μg/mL.
All the synthesized compounds were tested for their cytotoxicity by a modified MTT assay as described previously. Briefly, cells were seeded at the density of 1 × 10^5 cells/mL in a 96-well plate. The plates were incubated overnight in CO2 incubator (37 °C under 5% CO2 and 95% air in a humidified atmosphere). Next day, cells were treated with synthesized compounds at 10-fold dilution (100–0.1 µg/mL) and incubated for an additional 48 h. Paclitaxel was used as positive control. Post incubation, cell medium was replaced with MTT (0.5 mg/mL)-PBS medium and incubated for 2–4 h to form the reduced MTT or Formazan crystals. This reduced MTT or Formazan crystals were solubilized by addition of 100 µL of SDS-DMF (20% SDS in 50% DMF). The optical density was read on a microplate reader (Spectramax plus 384 plate reader, Molecular Devices Inc.) at 570 nm filter against a blank prepared from cell-free wells. Absorbance given by cells treated with the vehicle alone was taken as 100% cell growth. IC50 and MIC values were calculated from graphs, using Origin Pro software. Where DMSO treated culture cells is control and culture medium without cells is blank. The percent cytotoxicity in the presence of test fractions was calculated by the following formula:Percent cytotoxicity = [(average absorbance of control − absorbance of a compound)/(absorbance of control − absorbance of blank)] × 100(2)

[3] = XRMA, 8 days incubation at 37 °C, liquid M. pheli medium

Row | SMILES | IC50 [1, 3] | IC50 [2] | IC50 [1]
1 | O=C(NN1C(=O)C(Cl)C1c1ccc(O)cc1)c1ccc(OCc2ccccc2)cc1 (stereo not shown) [Derivative 6a, 4-(Benzyloxy)-N-(3-chloro-2-(4-hydroxyphenyl)-4-oxoazetidin-1-yl) benzamide] | 0.652 µg/mL (≈ 1.54 µM) | 82.6 µg/mL (≈ 195 µM) | 
2 | COc1ccc(C2C(Cl)C(=O)N2NC(=O)c2ccc(OCc3ccccc3)cc2)cc1 (stereo not shown) [Derivative 6b, 4-(Benzyloxy)-N-(3-chloro-2-(4-methoxyphenyl)-4-oxoazetidin-1-yl) benzamide] | 0.918 µg/mL (≈ 2.1 µM) | 54.9 µg/mL (≈ 126 µM) | 
3 | O=C(NN1C(=O)C(Cl)C1c1ccc(F)cc1)c1ccc(OCc2ccccc2)cc1 (stereo not shown) [Derivative 6c, 4-(Benzyloxy)-N-(3-chloro-2-(4-fluorophenyl)-4-oxoazetidin-1-yl) benzamide] | 0.85 µg/mL (≈ 2 µM) | 31.6 µg/mL (≈ 74.4 µM) | 
4 | O=C(NN1C(=O)C(Cl)C1c1ccc(Cl)cc1)c1ccc(OCc2ccccc2)cc1 (stereo not shown) [Derivative 6d, 4-(Benzyloxy)-N-(3-chloro-2-(4-chlorophenyl)-4-oxoazetidin-1-yl) benzamide] | 1.34 µg/mL (≈ 3.04 µM) | 70.4 µg/mL (≈ 159 µM) | 
5 | O=C(NN1C(=O)C(Cl)C1c1cccc([N+](=O)[O-])c1)c1ccc(OCc2ccccc2)cc1 (stereo not shown) [Derivative 6e, 4-(Benzyloxy)-N-(3-chloro-2-(3-nitrophenyl)-4-oxoazetidin-1-yl) benzamide] | 0.654 µg/mL (≈ 1.45 µM) | > 100 µg/mL | 
6 | COc1ccc(C2C(Cl)C(=O)N2NC(=O)c2ccc(OCc3ccccc3)cc2)cc1OC (stereo not shown) [Derivative 6f, 4-(Benzyloxy)-N-(3-chloro-2-(3,4-dimethoxyphenyl)-4-oxoazetidin-1-yl) benzamide] | 1.72 µg/mL (≈ 3.67 µM) | 44.1 µg/mL (≈ 94.4 µM) | 
7 | COc1cc(C2C(Cl)C(=O)N2NC(=O)c2ccc(OCc3ccccc3)cc2)ccc1O (stereo not shown) [Derivative 6g, 4-(Benzyloxy)-N-(3-chloro-2-(4-hydroxy-3-methoxyphenyl)-4-oxoazetidin-1-yl) benzamide] | 0.718 µg/mL (≈ 1.59 µM) | > 100 µg/mL | 
8 | CCOc1cc(C2C(Cl)C(=O)N2NC(=O)c2ccc(OCc3ccccc3)cc2)ccc1O (stereo not shown) [Derivative 6h, 4-(Benzyloxy)-N-(3-chloro-2-(3-ethoxy-4-hydroxyphenyl)-4-oxoazetidin-1-yl) benzamide] | 0.85 µg/mL (≈ 1.82 µM) | > 100 µg/mL | 
9 | O=C(NN1C(=O)C(Cl)C1c1ccc(OCc2ccccc2)cc1)c1ccc(OCc2ccccc2)cc1 (stereo not shown) [Derivative 6i, 4-(Benzyloxy)-N-(2-(4-(benzyloxy)phenyl)-3-chloro-4-oxoazetidin-1-yl) benzamide] | 1.31 µg/mL (≈ 2.55 µM) | 89.2 µg/mL (≈ 174 µM) | 
10 | O=C(NN1C(=O)C(Cl)C1c1cccs1)c1ccc(OCc2ccccc2)cc1 (stereo not shown) [Derivative 6j, 4-(Benzyloxy)-N-(3-chloro-2-oxo-4-(thiophen-2-yl)azetidin-1-yl) benzamide] | 0.786 µg/mL (≈ 1.9 µM) | 33.2 µg/mL (≈ 80.4 µM) | 
11 | CC(=O)O[C@H]1C(=O)[C@@]2(C)[C@H]([C@H](OC(=O)c3ccccc3)[C@]3(O)C[C@H](OC(=O)[C@H](O)[C@@H](NC(=O)c4ccccc4)c4ccccc4)C(C)=C1C3(C)C)[C@]1(OC(C)=O)CO[C@@H]1C[C@@H]2O [Paclitaxel, reference compound] |  | 0.0056 µg/mL (≈ 0.00656 µM) | 
12 | CO[C@H]1/C=C/O[C@@]2(C)Oc3c(C)c(O)c4c(O)c(c(/C=N/N5CCN(C)CC5)c(O)c4c3C2=O)NC(=O)/C(C)=C\C=C\[C@H](C)[C@H](O)[C@@H](C)[C@@H](O)[C@@H](C)[C@H](OC(C)=O)[C@@H]1C [Rifampicin, reference compound] |  |  | 0.004 µg/mL (≈ 0.00486 µM)
